Measured values published in paper PMC10914734 (Signal Transduction and Targeted Therapy, 2024).
Where two headings read alike, the source gives them in different places.

Columns and labels:
SARS-CoV-2 RdRp = SARS-CoV-2 RdRp (Severe acute respiratory syndrome coronavirus 2, UniProt P0DTD1); assay: biochemical
[1] = test system: LPS-induced expression of proinflammatory cytokines (IL-1β, IL-6) and chemokines (CCL3, CXCL10) in Raw 264.7 mouse macrophages; assay: Anti-inflammatory assay in LPS-stimulated Raw 264.7 cells (RT-qPCR); format: cell-based; details: LPS 200 ng/mL 6 h, dose-dependent
Procedure: Mouse macrophage Raw 264.7 cells were incubated with compounds 14a or 14b at different doses for 2 h. Then, the cells were stimulated with LPS (200 ng/mL) for 6 h, followed by RT-qPCR analysis.
RNA isolation, cDNA synthesis, and RT-qPCR. Total RNA was isolated from cells using RNA extraction reagent (Vazyme, R401-01). cDNA was synthesized using the HiScript IIQ RT SuperMix (Vazyme, R223-01), according to manufacturer’s instructions. RT-qPCR was performed using ChamQ SYBR qPCR Master Mix (Vazyme, Q331-02) in a CFX96TM Real-Time PCR Detection System (Bio-Rad, Shanghai, China). The profile of thermal cycling consisted of initial denaturation at 95 °C for 30 s, 40 cycles at 95 °C for 5 s and 60 °C for 30 s. All primer sequences used in this study are listed in Supplementary Table S5.

MERS-CoV PsV = assay: microbe, parasite or virus in culture; format: cell-based; details: Middle East respiratory syndrome-related coronavirus, Huh-7, read-out: EC50, MERS-CoV PsV
Pharmacokinetics in mice = format: in vivo; details: for AUC(0-inf): read-out: AUCINF_obs; for MRT inf: read-out: MRTINF_obs
Pharmacokinetics in rats = format: in vivo; details: for AUC(0-t) / Cmax / Tmax / bioavailability / half-life / AUC(0-inf) / MRT inf / clearance: male, SD, rat, plasma; for AUC(0-inf): read-out: AUCINF_obs; for MRT inf: read-out: MRTINF_obs
Human Chymotrypsin C = Human Chymotrypsin C (Homo sapiens, UniProt Q99895); assay: Protease panel, chymotrypsin C inhibition; format: biochemical; details: at a concentration of 20 μM; read-out: Inhibition rate, Human Chymotrypsin C
Chain of Human Chymotrypsin C (Q99895 30-268): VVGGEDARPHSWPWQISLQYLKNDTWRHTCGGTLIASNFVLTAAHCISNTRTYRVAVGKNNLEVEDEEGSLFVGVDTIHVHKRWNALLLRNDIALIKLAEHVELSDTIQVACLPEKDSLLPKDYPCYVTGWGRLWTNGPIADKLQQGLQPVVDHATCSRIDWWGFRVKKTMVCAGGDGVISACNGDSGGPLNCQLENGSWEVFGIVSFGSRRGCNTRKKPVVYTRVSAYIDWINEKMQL

SARS-CoV-2 M^pro = SARS-CoV-2 M^pro (Severe acute respiratory syndrome coronavirus 2, UniProt P0DTD1); assay: biochemical
Human CTSD = Human CTSD (Homo sapiens, UniProt P07339); assay: Protease panel, CTSD inhibition; format: biochemical; details: at a concentration of 20 μM; read-out: Inhibition rate, Human CTSD
Chain of Human CTSD (P07339 65-412): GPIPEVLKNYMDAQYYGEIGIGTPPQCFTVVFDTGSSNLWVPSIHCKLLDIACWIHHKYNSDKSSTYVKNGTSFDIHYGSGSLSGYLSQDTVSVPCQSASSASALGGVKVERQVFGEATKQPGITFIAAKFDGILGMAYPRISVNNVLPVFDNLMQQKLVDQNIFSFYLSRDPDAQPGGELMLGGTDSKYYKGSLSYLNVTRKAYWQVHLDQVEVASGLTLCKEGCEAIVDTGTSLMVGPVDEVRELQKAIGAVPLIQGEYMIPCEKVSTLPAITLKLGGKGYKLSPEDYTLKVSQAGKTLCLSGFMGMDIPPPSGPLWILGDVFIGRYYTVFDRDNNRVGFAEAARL

Human Elastase = assay: Protease panel, elastase inhibition; format: biochemical; details: at a concentration of 20 μM
HCoV-229E PsV = assay: microbe, parasite or virus in culture; format: cell-based; details: Human coronavirus 229E, Huh-7, read-out: EC50, HCoV-229E PsV
Human CTSC = Human CTSC (Homo sapiens, UniProt P53634); assay: biochemical
Chain of Human CTSC (P53634 25-463): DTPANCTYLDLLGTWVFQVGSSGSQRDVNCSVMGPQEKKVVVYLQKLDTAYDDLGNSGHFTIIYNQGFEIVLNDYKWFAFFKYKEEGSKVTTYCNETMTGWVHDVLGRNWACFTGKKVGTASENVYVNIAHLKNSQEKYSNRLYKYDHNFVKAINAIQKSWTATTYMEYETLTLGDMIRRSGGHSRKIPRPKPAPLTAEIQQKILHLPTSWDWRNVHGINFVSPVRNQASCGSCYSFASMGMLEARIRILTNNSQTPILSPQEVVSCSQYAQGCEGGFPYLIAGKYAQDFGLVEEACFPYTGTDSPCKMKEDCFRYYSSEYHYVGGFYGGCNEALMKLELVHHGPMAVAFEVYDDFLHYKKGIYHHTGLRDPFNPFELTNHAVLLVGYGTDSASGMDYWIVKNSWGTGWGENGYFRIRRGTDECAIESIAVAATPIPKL

Human CTSB = Human CTSB (Homo sapiens, UniProt P07858); assay: biochemical
Human Trypsin = assay: Protease panel, trypsin inhibition; format: biochemical; details: at a concentration of 20 μM
[2] = male, ICR, mouse, plasma, ip, 14a, i.p. (5 mg/kg)
[3] = male, ICR, mouse, plasma, iv, 14a, i.v. (5 mg/kg)
[4] = male, ICR, mouse, plasma, po, 14a, p.o. (10 mg/kg)
[5] = CD-1, mouse, plasma, po, 14b, p.o. (20 mg/kg)
[6] = male, CD-1, mouse, plasma, ip, 14b, i.p. (20 mg/kg)
[7] = male, CD-1, mouse, plasma, iv, 14b, i.v. (10 mg/kg)

## O=C(NCc1ccccc1)C(=O)[C@H](C[C@@H]1CCCNC1=O)NC(=O)[C@H](Cc1ccc(F)cc1)NC(=O)c1cc2ccccc2o1 [14a, N-((S)-1-(((S)-4-(benzylamino)-3,4-dioxo-1-((S)-2-oxopiperidin-3-yl)butan-2-yl)amino)-3-(4-fluorophenyl)-1-oxopropan-2-yl)benzofuran-2-carboxamide]
SARS-CoV-2 RdRp
  IC50: 8020 ± 40 nM
[1]
  LPS-induced expression of proinflammatory cytokines (IL-1β, IL-6) and chemokines (CCL3, CXCL10): significantly inhibited
MERS-CoV PsV
  EC50: 29.8 ± 5.72 nM
Pharmacokinetics in mice; 14a, i.v. (5 mg/kg)
  Vss_obs: 9.5 L/kg
Pharmacokinetics in mice; [2]
  AUC(0-t): 1260 ng·h/mL
  Cmax: 1120 ng/mL
  Tmax: 0.25 h
  bioavailability: 101%
  half-life: 7.01 h
  AUC(0-inf): 1270 ng·h/mL
  MRT inf: 1.82 h
Pharmacokinetics in mice; male, ICR, mouse, plasma, ip, 14a, intraperitoneal (10 mg/kg) as printed in the text, read-out: area under the curve (AUC)
  AUC: 1270 ng·h/mL
Pharmacokinetics in mice; [3]
  AUC(0-t): 1220 ng·h/mL
  clearance: 66 mL/min/kg
  half-life: 18.5 h
  AUC(0-inf): 1260 ng·h/mL
  MRT inf: 2.4 h
Pharmacokinetics in mice; [4]
  AUC(0-t): 125 ng·h/mL
  Cmax: 124 ng/mL
  Tmax: 0.25 h
  bioavailability: 5%
  half-life: 1.09 h
  AUC(0-inf): 126 ng·h/mL
  MRT inf: 1.09 h
Pharmacokinetics in rats; i.v. (5 mg/kg)
  Vss_obs: 1.3 ± 0.15 L/kg
Pharmacokinetics in rats; ip, i.p. (5 mg/kg)
  AUC(0-t): 4760 ng·h/mL
  Cmax: 2080 ng/mL
  Tmax: 0.25 h
  bioavailability: 115%
  half-life: 4.14 h
  AUC(0-inf): 4760 ng·h/mL
  MRT inf: 1.9 h
Pharmacokinetics in rats; iv, i.v. (5 mg/kg)
  AUC(0-t): 4110 ± 756 ng·h/mL
  clearance: 20.6 ± 3.4 mL/min/kg
  half-life: 6 ± 0.75 h
  AUC(0-inf): 4130 ± 756 ng·h/mL
  MRT inf: 1.08 ± 0.07 h
Pharmacokinetics in rats; po, p.o. (10 mg/kg)
  AUC(0-t): 1050 ± 276 ng·h/mL
  Cmax: 416 ng/mL
  Tmax: 0.75 ± 0.84 h
  bioavailability: 13%
  half-life: 2.52 h
  AUC(0-inf): 1060 ng·h/mL
  MRT inf: 2.06 ± 0.49 h
Human Chymotrypsin C
  inhibition: -2 ± 1%
SARS-CoV-2 M^pro
  IC50: 12600 nM
Human CTSD
  inhibition: 21 ± 1%
Human Elastase
  Inhibition rate, Human Elastase: 5 ± 1%
HCoV-229E PsV
  EC50: 18.8 ± 4.18 nM
Human CTSC
  IC50: 181 ± 30.4 nM
Human CTSB
  IC50: 1.23 nM
Human Trypsin
  Inhibition rate, Human Trypsin: 3 ± 1%

## O=C(NCc1ccccc1)C(=O)[C@H](C[C@@H]1CCCNC1=O)NC(=O)[C@H](CC1CCCCC1)NC(=O)c1cc2ccccc2o1 [14b, N-((S)-1-(((S)-4-(benzylamino)-3,4-dioxo-1-((S)-2-oxopiperidin-3-yl)butan-2-yl)amino)-3-cyclohexyl-1-oxopropan-2-yl)benzofuran-2-carboxamide]
SARS-CoV-2 RdRp
  IC50: 3210 ± 250 nM
[1]
  LPS-induced expression of proinflammatory cytokines (IL-1β, IL-6) and chemokines (CCL3, CXCL10): significantly inhibited
MERS-CoV PsV
  EC50: 13.6 ± 3.05 nM
Pharmacokinetics in mice; 14b, i.v. (10 mg/kg)
  Vss_obs: 6.419 ± 2.698 L/kg
Pharmacokinetics in mice; [5]
  AUC(0-t): 463 ± 225 ng·h/mL
  Cmax: 290 ± 189 ng/mL
  Tmax: 0.25 h
  bioavailability: 8%
  half-life: 1.32 ± 0.77 h
  MRT inf: 2.11 ± 0.87 h
Pharmacokinetics in mice; [6]
  AUC(0-t): 7300 ± 782 ng·h/mL
  Cmax: 3270 ± 374 ng/mL
  Tmax: 0.18 ± 0.12 h
  bioavailability: 128%
  half-life: 5.77 h
  AUC(0-inf): 7640 ng·h/mL
  MRT inf: 5.34 ± 1.81 h
Pharmacokinetics in mice; [7]
  AUC(0-t): 2900 ± 1020 ng·h/mL
  clearance: 62.5 ± 27.4 mL/min/kg
  half-life: 3.34 ± 2.38 h
  AUC(0-inf): 2980 ng·h/mL
  MRT inf: 1.88 ± 1.08 h
Pharmacokinetics in mice; male, CD-1, mouse, plasma, po, 14b, p.o. (20 mg/kg)
  AUC(0-inf): 488 ng·h/mL
Pharmacokinetics in rats; i.v. (5 mg/kg)
  Vss_obs: 2.28 ± 0.184 L/kg
Pharmacokinetics in rats; ip, i.p. (5 mg/kg)
  AUC(0-t): 9300 ± 994 ng·h/mL
  Cmax: 1630 ± 99 ng/mL
  Tmax: 0.25 h
  bioavailability: 249%
  half-life: 8.24 ± 1.72 h
  AUC(0-inf): 10600 ± 557 ng·h/mL
  MRT inf: 10.6 ± 1.8 h
Pharmacokinetics in rats; iv, i.v. (5 mg/kg)
  AUC(0-t): 4220 ± 189 ng·h/mL
  clearance: 19.6 ± 0.9 mL/min/kg
  half-life: 5.11 ± 0.1 h
  AUC(0-inf): 4250 ± 188 ng·h/mL
  MRT inf: 1.94 ± 0.12 h
Pharmacokinetics in rats; po, p.o. (10 mg/kg)
  AUC(0-t): 2620 ± 250 ng·h/mL
  Cmax: 982 ng/mL
  Tmax: 0.33 ± 0.14 h
  bioavailability: 32%
  half-life: 3.86 h
  AUC(0-inf): 2680 ng·h/mL
  MRT inf: 3.95 ± 1.27 h
Human Chymotrypsin C
  inhibition: 8 ± 4%
SARS-CoV-2 M^pro
  IC50: 990 nM
Human CTSD
  inhibition: 29 ± 2%
Human Elastase
  Inhibition rate, Human Elastase: 2 ± 2%
HCoV-229E PsV
  EC50: 13.1 ± 6.26 nM
Human CTSC; read-out: IC50, Human CTSC
  IC50: 66.2 ± 7.85 nM
Human CTSB
  IC50: 1.01 nM
Human Trypsin
  Inhibition rate, Human Trypsin: 1 ± 1%
